# Laboratory results published in US10450295B2, “Method of using an indolinone molecule and derivatives for inhibiting liver fibrosis and hepatitis” (Acclaim BioMed USA LLC, priority 2013, dated 2019).
# Entries after “also recorded” stand apart in the source; their conditions may differ.
# How the values were obtained:
# human HSC's (LX-2) = test: HSC morphology under the microscope; assay type: cell-based
# Experimental: In the control cultures, the HSCs appeared morphologically to be like fibroblasts (FIG. 1A). In the presence of Hesperadin, the HSC cells increased in size 2-3 folds (FIGS. 1B and C). The effect of Hesperadin on HSC growth was examined. […] The cell-cycle progression of HSCs is further analyzed in the presence of 0.625 μM Hesperadin using Flow Cytometry. […] Human Hepatic Stellate cells (LX-2 cell line) (HSCs) were obtained from the Key Lab of Regenerative Medicine, Jinan University, Guangzhou, China, which were maintained in Dulbecco's Modified Eagle Medium (DMEM)+10% fetal calf serum and penicillin-streptomycin (100 unit/ml and 0.1 mg/ml, respectively), in 5% CO2 at 37° C. inside a humidified cell incubator. The culture medium was changed every three days. To test the effects of small molecule Hesperadin on the mouse and human HSCs, the cultures were treated with 0.625 μM of Hesperadin for 48 hrs. The cultures were then fixed in ice cold 70% ethanol and incubated in phosphate buffered saline with RNase (0.25 mg/ml), Propidium iodide dye (40 μg/ml) and 0.1% Triton X for an hour at room temperature. […] The proliferation of HSCs was also evaluated by the MTT staining assay with 3-(4,5-Dimethylthiazol-2-yl)-2,5-diphenyltetrazolium bromide). […] The absorbance (at 570 nm) was measured using a BIORAD 3550 Microplate Reader. […]
# Mammalian cells = settings: cited from earlier work
# [1] = test system: collagen 3A1 gene expression; test: Real-time RT-PCR in HSC, collagen 3A1; assay type: cell-based, human; settings: 0.625 μM, FIG. 8
# Experimental: Human Hepatic Stellate cells (LX-2 cell line) (HSCs) were obtained from the Key Lab of Regenerative Medicine, Jinan University, Guangzhou, China, which were maintained in Dulbecco's Modified Eagle Medium (DMEM)+10% fetal calf serum and penicillin-streptomycin (100 unit/ml and 0.1 mg/ml, respectively), in 5% CO2 at 37° C. inside a humidified cell incubator. The culture medium was changed every three days. To test the effects of small molecule Hesperadin on the mouse and human HSCs, the cultures were treated with 0.625 μM of Hesperadin for 48 hrs. […] The proliferation of HSCs was also evaluated by the MTT staining assay with 3-(4,5-Dimethylthiazol-2-yl)-2,5-diphenyltetrazolium bromide). […] The absorbance (at 570 nm) was measured using a BIORAD 3550 Microplate Reader. […]
# Collagen type-I, -III and -VI, MMP-2, MMP-9 and TIMP-1 gene expression was determined using quantitative real-time PCR. […] Quantitation of mRNA levels was performed using a SYBR® Premix Ex Taq™ Kit (Takara) in an Applied Biosystems 7900HT Fast Real-Time PCR System. To quantify the amount of specific mRNA in the samples, a standard curve was generated for each PCR run using four amounts of the cDNA synthesized from our HSC cultures and liver samples. […] Data was analyzed using a StatView software (Abacus Concepts Inc) with Student's t-test.
# [2] = test system: Human Hepatic Stellate cells (LX-2 cell line); test: MTT analysis of HSC proliferation; assay type: cell-based; settings: serial dilutions, 48 hours
# Experimental: Human Hepatic Stellate cells (LX-2 cell line) (HSCs) were obtained from the Key Lab of Regenerative Medicine, Jinan University, Guangzhou, China, which were maintained in Dulbecco's Modified Eagle Medium (DMEM)+10% fetal calf serum and penicillin-streptomycin (100 unit/ml and 0.1 mg/ml, respectively), in 5% CO2 at 37° C. inside a humidified cell incubator. The culture medium was changed every three days. To test the effects of small molecule Hesperadin on the mouse and human HSCs, the cultures were treated with 0.625 μM of Hesperadin for 48 hrs. The cultures were then fixed in ice cold 70% ethanol and incubated in phosphate buffered saline with RNase (0.25 mg/ml), Propidium iodide dye (40 μg/ml) and 0.1% Triton X for an hour at room temperature. For cell cycle analysis, the Propidium iodide stained cells were examined using a flow cytometer (“BD LSRFortessa Cell Analyzer”). The proliferation of HSCs was also evaluated by the MTT staining assay with 3-(4,5-Dimethylthiazol-2-yl)-2,5-diphenyltetrazolium bromide). HSCs were plated at 1×10^4 cells/ml and culture overnight. Hesperadin (in serial dilutions) was then added into the culture medium for 48 hours. This was followed by addition of MTT (250 μg/ml) for a further 4 hours. The medium was eluted and the formazan crystal was dissolved in 100 μL of DMSO. The absorbance (at 570 nm) was measured using a BIORAD 3550 Microplate Reader. […]
smiles,measurement,setting,value
"CCS(=O)(=O)Nc1ccc2c(c1)/C(=C(/Nc1ccc(CN3CCCCC3)cc1)c1ccccc1)C(=O)N2 [Hesperadin, (Z)—N-(2-oxo-3-(Phenyl(4-(piperidin-1-ylmethyl)phenylamino)methylene)indolin-5-yl)ethanesulfonamide]",increase in HSC cell size,"human HSC's (LX-2); 0.625 or 1.25 μM, 48 hrs",2-3 folds
same,increase in HSC size (FIG. 1),"human HSC's (LX-2); 0.65 and 1.25 μM, 24 hours",several folds
same,time to enter anaphase,Mammalian cells; cells arrested by taxol or monastrol,< 1 h
same,time cells stayed arrested,Mammalian cells; cells in nocodazole,3 to 5 h
same,effect on nuclear division and cytokinesis,Mammalian cells,blocks nuclear division and cytokinesis
same,Collagen 3A1 mRNA expression,[1],confirmed by real-time RT-PCR analysis
same,"HSC proliferation (MTT, optical density)",[2],inhibited HSC proliferation in a dose dependent manner; also recorded: suppressed HSC proliferation in a dose-dependent manner
